Assay results published in patent publication US20240309014A1, “MACROCYCLIC COMPOUNDS AND USES THEREOF” (President and Fellows of Harvard College, priority 2017, published 2024).

Experiments:
[1] = test system: HCCl806 subcutaneous xenograft; assay: Antitumor activity against HCC1806 subcutaneous xenograft as monotherapy; type: in vivo, nude mice; conditions: 0.18 mg/kg i.v., Q7Dx2
Description: A human breast cancer cell line HCCl806, which had been cultured in an RPMI-1640 medium containing 10% FBS, and penicillin and streptomycin, was adjusted to a concentration of 1×10^8 cells/mL with PBS to prepare a cell suspension, and the suspension was mixed with Matrigel™ (BD Bioscience, #366237) in a ratio of 1:1 to prepare a cell suspension in a concentration of 5×10^7 cell/mL. The cell suspension was inoculated in a volume of 100 μL into a subcutaneous part of a right flank of nude mice, 5 weeks of ages (CAnN.Cg-Foxnlnu/CrlCrlj, female, Charles River Laboratories Japan, Inc.). Twelve days after cell inoculation, the shortest diameter and the longest diameter of a tumor in each mouse were measured by using an electronic digital caliper (Digimatic™ caliper, Mitutoyo Corporation), so as to calculate the volume of the tumor in accordance with the following calculation formulae: […]
On the basis of the volumes of tumors obtained on the first day of administration, the mice were grouped such that averages of the tumor volumes were substantially equal among the groups. The experiment was conducted on groups each consisting of 6 mice. Test compound was dissolved in saline and intravenously administered at 0.18 mg/kg once a week for 2 weeks (Q7Dx2 schedule).

[2] = test system: HSC-2-Luc inoculated into tongue; assay: HSC-2 orthotopic transplantation mouse model; type: in vivo, nude mice; conditions: for ILS (%): Compound (1) 0.09 mg/kg
[3] = test system: FaDu-Luc subcutaneous xenograft; assay: FaDu s.c. xenograft model in combination with radiation; type: in vivo, nude mice
Description: Luciferase-transduced FaDu-Luc cells were established by retrovirus-mediated gene transfer. […]. Then, helper-free recombinant retroviruses were produced by transfecting the above retroviral expression vector together with pGP and pE-Ampho plasmids (Takara Bio; Shiga, Japan), into 293T cells (ATCC; Manassas, USA). Next, FaDu cells were infected with the recombinant retroviruses, and were cultured for two weeks in the presence of puromycin (2 μg/mL). The infected cells were selected from a polyclonal proliferative population of the culture.
A luciferase-transduced human SCCHN cell line FaDu-Luc, which had been cultured in an RPMI-1640 medium containing 10% FBS, and penicillin and streptomycin, was adjusted to a concentration of 5×10^7 cells/mL with Hank's Balanced Salt Solution to prepare a cell suspension. […] Thirteen days after the cell inoculation, the tumor volume was analyzed using bioluminescence signal from FaDu-Luc cells. […] The bioluminescence signal was monitored using the IVIS […] series (PerkinElmer, Waltham, MA), consisting of a highly sensitive, cooled chargecoupled device camera. […] Data were analyzed using total photon flux emission (photons/second) in the ROIs. The total photon flux emission was calculated in accordance with the following calculation formulae: […]

[4] = test system: Tenascin-C and EDA-fibronectin; assay: Effects on Tenascin-C and EDA-fibronectin in the FaDu subcutaneous model (FIG. 15); type: in vivo, nude mice; conditions: Compound (1) 180 μg/kg + cetuximab 10 mg/kg on Day 1, tumors five days after, vs control tumors
Description: A human squamous cell carcinoma of the head and neck (SCCHN) cell line FaDu, which had been cultured in an RPMI-1640 medium containing 10% FBS, and penicillin-streptomycin (culture medium), was adjusted to a concentration of 5×10^7 cells/mL with culture medium to prepare a cell suspension. The cell suspension was inoculated in a volume of 100 μL into a subcutaneous part of a right flank of nude mice, 6 weeks of ages (CAnN.Cg-Foxnlnu/CrlCrlj, female, Charles River Laboratories Japan, Inc.). Ten days after cell inoculation, the mice were grouped such that averages of the tumor volumes were substantially equal among the groups. The experiment was conducted on groups each consisting of 5 mice. Compound (1) was dissolved in DMSO and a solution was stored in the freezer before use. […] Five days after the single administration, tumor samples were collected and fixed with IHC Zinc Fixative (BD Pharmingen) at 4° C. for 24 hr. Paraffin-embedded tissues were sectioned (3 μm), mounted on positively charged slides, and air-dried. Sections were deparaffinized, conditioned and the antigens were retrieved using microwave with 1 mM EDTA at pH 6.0 for Tenascin-C. For EDA-fibronectin, the antigens retrieval procedure was not necessary. […]

L-1210 Leukemia = conditions: cited from earlier work

Compound: C=C1C[C@@H]2CC[C@@]34C[C@H]5O[C@H]6[C@@H](O3)[C@H]3O[C@H](CC[C@@H]3O[C@H]6C5O4)CC(=O)O[C@@H]3[C@@H](C)[C@@H]4O[C@@H]5C[C@]6(C[C@@H]7O[C@]8(C[C@H](C)[C@@H]9O[C@H](CN)[C@H](O)C[C@@H]9O8)C[C@H](C)[C@@H]7O6)O[C@@H]5C[C@@H]4O[C@H]3C[C@H]3O[C@@H](CC[C@@H]1O2)C[C@@H](C)C3=C (stereo in doubt) [Compound (1)]
- Tumor Regression (%) [1]: 90%
- bioluminescence signal ([2]; Compound (1) with cetuximab, after Day 14): clearly reduced the bioluminescence signal in all mice
- survived mice on Day 100 ([2]; Compound (1)+CTX combination group, n=16): 10
- ILS (%) ([2]; single agent, Q7Dx3: cetuximab 5 mg/kg, cisplatin 5 mg/kg): 238%
- ILS (%) ([2]; with cetuximab 5 mg/kg, Q7Dx3: cisplatin 5 mg/kg): >1150%
- Tumor Regression (%) ([3]; 0.09 mg/kg i.v. day 1 and 8 + radiation 18 Gy day 4 and 11): 97%
- Tumor Regression (%) ([3]; 0.09 mg/kg i.v. day 1 and 8, without radiation): 0%
- expression levels of Tenascin-C and ED-A fibronectin [4]: reduced

Compound: C=C1C[C@@H]2CC[C@@]34C[C@H]5O[C@H]6[C@@H](O3)[C@H]3O[C@H](CC[C@@H]3O[C@H]6[C@H]5O4)CC(=O)O[C@@H]3[C@@H](C)[C@@H]4O[C@@H]5C[C@]6(C[C@@H]7O[C@]8(C[C@H](C)[C@@H]9O[C@H]([C@@H](O)C[C@@H](O)CO)C[C@@H]9O8)C[C@H](C)[C@@H]7O6)O[C@@H]5C[C@@H]4O[C@H]3C[C@H]3O[C@@H](CC[C@@H]1O2)C[C@@H](C)C3=C [Halichondrin B, reference compound]
- activity against L-1210 Leukemia in vivo (L-1210 Leukemia): highly active
